Results reported in PubChem BioAssay AID256 (DTP/NCI, 2004).
Several values for one entry are separate records, joined by “and”; a condition that tells them apart may be missing. Equal values may be shown once. Toxic doses and inconclusive results are not listed.

Test system: CD2F1 mice, L1210 leukemia ip, survival T/C
Test: NCI In Vivo Anticancer Drug Screen. Data for tumor model L1210 Leukemia (intraperitoneal) in CD2F1 (CDF1) mice
Details: higher = longer survival
Summary of the method: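 Compound-dosed mice with transplantable tumor versus matched vehicle controls; endpoint ratio T/C reported.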

[1] = endpoint: mean survival time, dose: 25.0 mg/kg/injection, schedule: Q01DX009 (ip), vehicle: water
[2] = endpoint: mean survival time, dose: 50.0 mg/kg/injection, schedule: Q01DX009 (ip), vehicle: water
[3] = endpoint: mean survival time, dose: 100.0 mg/kg/injection, schedule: Q01DX009 (ip), vehicle: water
[4] = endpoint: mean survival time, dose: 50.0 mg/kg/injection, schedule: Q01DX009 (ip), vehicle: saline with Tween-80
[5] = endpoint: mean survival time, dose: 100.0 mg/kg/injection, schedule: Q01DX009 (ip), vehicle: saline with Tween-80
[6] = endpoint: mean survival time, dose: 200.0 mg/kg/injection, schedule: Q01DX009 (ip), vehicle: saline with Tween-80
[7] = endpoint: mean survival time, dose: 100.0 mg/kg/injection, schedule: Q01DX001 (ip), vehicle: saline with Tween-80
[8] = endpoint: mean survival time, dose: 100.0 mg/kg/injection, schedule: Q04DX003 (ip), vehicle: saline with Tween-80
[9] = endpoint: mean survival time, dose: 200.0 mg/kg/injection, schedule: Q04DX003 (ip), vehicle: saline with Tween-80
[10] = endpoint: mean survival time, dose: 400.0 mg/kg/injection, schedule: Q04DX003 (ip), vehicle: saline with Tween-80
[11] = endpoint: mean survival time, dose: 400.0 mg/kg/injection, schedule: Q01DX009 (ip), vehicle: saline with Tween-80
[12] = endpoint: mean survival time, dose: 100.0 mg/kg/injection, schedule: Q01DX009 (ip), vehicle: Klucel (hydroxypropylcellulose) (HPC)

Compound: O=C(O)C1CSCN1 (stereo unspecified)
- T/C (endpoint: mean survival time, dose: 3.12 mg/kg/injection, schedule: Q01DX009 (ip), vehicle: saline): 97 % of control
- T/C (endpoint: mean survival time, dose: 3.12 mg/kg/injection, schedule: Q01DX009 (ip), vehicle: water): 101 % of control
- T/C (endpoint: mean survival time, dose: 6.25 mg/kg/injection, schedule: Q01DX009 (ip), vehicle: saline): 98 % of control
- T/C (endpoint: mean survival time, dose: 6.25 mg/kg/injection, schedule: Q01DX009 (ip), vehicle: water): 93 % of control
- T/C (endpoint: mean survival time, dose: 12.5 mg/kg/injection, schedule: Q01DX009 (ip), vehicle: saline): 96 % of control
- T/C (endpoint: mean survival time, dose: 12.5 mg/kg/injection, schedule: Q01DX009 (ip), vehicle: water): 102 % of control
- T/C (endpoint: mean survival time, dose: 25.0 mg/kg/injection, schedule: Q01DX009 (ip), vehicle: saline): 93 % of control
- T/C [1]: 98 % of control
- T/C (endpoint: mean survival time, dose: 50.0 mg/kg/injection, schedule: Q01DX009 (ip), vehicle: saline): 100 % of control
- T/C [2]: 95 % of control
- T/C (endpoint: mean survival time, dose: 100.0 mg/kg/injection, schedule: Q01DX009 (ip), vehicle: saline): 95 % of control
- T/C [3]: 95 % of control
- T/C (endpoint: median survival time, dose: 3.12 mg/kg/injection, schedule: Q01DX009 (ip), vehicle: Klucel (hydroxypropylcellulose) (HPC)): 93 % of control
- T/C (endpoint: median survival time, dose: 6.25 mg/kg/injection, schedule: Q01DX009 (ip), vehicle: Klucel (hydroxypropylcellulose) (HPC)): 95 % of control
- T/C (endpoint: median survival time, dose: 12.5 mg/kg/injection, schedule: Q01DX009 (ip), vehicle: Klucel (hydroxypropylcellulose) (HPC)): 102 % of control
- T/C (endpoint: median survival time, dose: 15.0 mg/kg/injection, schedule: Q01DX005 (ip), vehicle: saline): 108 % of control
- T/C (endpoint: median survival time, dose: 25.0 mg/kg/injection, schedule: Q01DX009 (ip), vehicle: Klucel (hydroxypropylcellulose) (HPC)): 91 % of control
- T/C (endpoint: median survival time, dose: 50.0 mg/kg/injection, schedule: Q01DX005 (ip), vehicle: saline): 101 % of control
- T/C (endpoint: median survival time, dose: 50.0 mg/kg/injection, schedule: Q01DX009 (ip), vehicle: Klucel (hydroxypropylcellulose) (HPC)): 95 % of control
- T/C (endpoint: median survival time, dose: 60.0 mg/kg/injection, schedule: Q01DX005 (ip), vehicle: saline): 103 % of control
- T/C (endpoint: median survival time, dose: 100.0 mg/kg/injection, schedule: Q01DX009 (ip), vehicle: Klucel (hydroxypropylcellulose) (HPC)): 91 % of control
- T/C (endpoint: median survival time, dose: 120.0 mg/kg/injection, schedule: Q01DX005 (ip), vehicle: saline): 100 % of control

Compound: CN(C)c1ccc(/C=[N+](\[O-])c2ccccc2)cc1
- T/C [4]: 92 % of control
- T/C [5]: 103 % of control
- T/C [6]: 100 % of control

Compound: NNC(=O)C(N)Cc1cnc[nH]1 (stereo unspecified)
- T/C (endpoint: mean survival time, dose: 50.0 mg/kg/injection, schedule: Q04DX002 (ip), vehicle: saline with Tween-80): 100 % of control
- T/C (endpoint: mean survival time, dose: 100.0 mg/kg/injection, schedule: Q04DX002 (ip), vehicle: saline with Tween-80): 100 % of control
- T/C (endpoint: mean survival time, dose: 200.0 mg/kg/injection, schedule: Q04DX002 (ip), vehicle: saline with Tween-80): 122 % of control
- T/C (endpoint: mean survival time, dose: 400.0 mg/kg/injection, schedule: Q04DX002 (ip), vehicle: saline with Tween-80): 118 % of control

Compound: CCCCCCCP(=O)(CCCCCCC)CCCCCCC
- T/C (endpoint: mean survival time, dose: 25.0 mg/kg/injection, schedule: Q01DX001 (ip), vehicle: saline with Tween-80): 107 % of control
- T/C (endpoint: mean survival time, dose: 50.0 mg/kg/injection, schedule: Q01DX001 (ip), vehicle: saline with Tween-80): 96 % of control
- T/C [7]: 100 % of control

Compound: CN(C)c1ccc(C(Cc2ccc(Nc3ccccc3)c3ccccc23)=C2C=CC(=[N+](C)C)C=C2)cc1
- T/C (endpoint: mean survival time, dose: 3.13 mg/kg/injection, schedule: Q01DX001 (ip), vehicle: saline): 96 % of control
- T/C (endpoint: mean survival time, dose: 6.25 mg/kg/injection, schedule: Q01DX001 (ip), vehicle: saline): 93 % of control
- T/C (endpoint: mean survival time, dose: 12.5 mg/kg/injection, schedule: Q01DX001 (ip), vehicle: saline): 118 % of control and 93 % of control
- T/C (endpoint: mean survival time, dose: 25.0 mg/kg/injection, schedule: Q01DX001 (ip), vehicle: saline): 106 % of control

Compound: O=C(Nc1ccc2c(c1)Cc1cc(Br)ccc1-2)C(F)(F)F
- T/C [8]: 101 % of control
- T/C [9]: 97 % of control
- T/C [10]: 101 % of control

Compound: COc1cc(N)c2nc(C(O)C(O)C(O)CO)cnc2c1 (stereo unspecified)
- T/C (endpoint: median survival time, dose: 12.5 mg/kg/injection, schedule: Q01DX005 (ip), vehicle: distilled water + Tween-80): 98 % of control
- T/C (endpoint: median survival time, dose: 25.0 mg/kg/injection, schedule: Q01DX005 (ip), vehicle: distilled water + Tween-80): 90 % of control
- T/C (endpoint: median survival time, dose: 50.0 mg/kg/injection, schedule: Q01DX005 (ip), vehicle: distilled water + Tween-80): 89 % of control
- T/C (endpoint: median survival time, dose: 100.0 mg/kg/injection, schedule: Q01DX005 (ip), vehicle: distilled water + Tween-80): 92 % of control
- T/C (endpoint: median survival time, dose: 200.0 mg/kg/injection, schedule: Q01DX005 (ip), vehicle: distilled water + Tween-80): 95 % of control

Compound: O=C(Nc1ccc(Nc2ccncc2)cc1)c1ccc(Nc2ccnc3ccccc23)cc1[N+](=O)[O-]
- T/C [7]: 98 % of control
- T/C (endpoint: mean survival time, dose: 200.0 mg/kg/injection, schedule: Q01DX001 (ip), vehicle: saline with Tween-80): 96 % of control
- T/C (endpoint: mean survival time, dose: 400.0 mg/kg/injection, schedule: Q01DX001 (ip), vehicle: saline with Tween-80): 95 % of control

Compound: O=[N+]([O-])c1cccc(S(=O)(=O)Nc2ccccc2Cl)c1
- T/C [5]: 97 % of control
- T/C [8]: 96 % of control
- T/C [6]: 92 % of control
- T/C [9]: 96 % of control
- T/C [11]: 95 % of control
- T/C [10]: 95 % of control

Compound: CN(C)N=Nc1ccc(/C=C/C(=O)O)cc1
- T/C (endpoint: mean survival time, dose: 12.5 mg/kg/injection, schedule: Q01DX009 (ip), vehicle: Klucel (hydroxypropylcellulose) (HPC)): 105 % of control
- T/C (endpoint: mean survival time, dose: 25.0 mg/kg/injection, schedule: Q01DX009 (ip), vehicle: Klucel (hydroxypropylcellulose) (HPC)): 111 % of control
- T/C [12]: 150 % of control

Compound: COC1=C(OC)C(C(O)CO)OC1=O (stereo unspecified)
- T/C [1]: 93 % of control
- T/C [2]: 89 % of control
- T/C [3]: 100 % of control
- T/C (endpoint: mean survival time, dose: 200.0 mg/kg/injection, schedule: Q01DX009 (ip), vehicle: water): 94 % of control
- T/C (endpoint: mean survival time, dose: 400.0 mg/kg/injection, schedule: Q01DX009 (ip), vehicle: water): 100 % of control

Compound: CCCCOC(=O)c1ccc(NC(=O)Nc2cc([N+](=O)[O-])ccc2C)cc1
- T/C (endpoint: mean survival time, dose: 50.0 mg/kg/injection, schedule: Q01DX009 (ip), vehicle: Klucel (hydroxypropylcellulose) (HPC)): 101 % of control
- T/C [12]: 89 % of control
- T/C (endpoint: mean survival time, dose: 200.0 mg/kg/injection, schedule: Q01DX009 (ip), vehicle: Klucel (hydroxypropylcellulose) (HPC)): 104 % of control

Compound: CCCCCCCN(CCCCCCC)CC(OC(C)=O)c1cc2ccccc2c2cc(Br)ccc12 (stereo unspecified)
- T/C [8]: 98 % of control
- T/C [9]: 101 % of control
- T/C [10]: 104 % of control

Compound: O=C(CNC(=O)Nc1cccc(C(F)(F)F)c1)N/N=C/c1c(O)ccc2ccccc12
- T/C (endpoint: mean survival time, dose: 12.5 mg/kg/injection, schedule: Q01DX009 (ip), vehicle: saline with Tween-80): 94 % of control
- T/C (endpoint: mean survival time, dose: 25.0 mg/kg/injection, schedule: Q01DX009 (ip), vehicle: saline with Tween-80): 94 % of control
- T/C [4]: 94 % of control and 96 % of control
- T/C [5]: 100 % of control
- T/C [6]: 100 % of control

Compound: CC(=O)NC(=S)NC(C)=O
- T/C (endpoint: mean survival time, dose: 75.0 mg/kg/injection, schedule: Q04DX003 (ip), vehicle: saline): 103 % of control
- T/C (endpoint: mean survival time, dose: 150.0 mg/kg/injection, schedule: Q04DX003 (ip), vehicle: saline): 103 % of control
- T/C (endpoint: mean survival time, dose: 300.0 mg/kg/injection, schedule: Q04DX003 (ip), vehicle: saline): 107 % of control

Compound: O/N=C1\C=C2C/C(=N/O)C=C2C1
- T/C [4]: 100 % of control
- T/C [5]: 96 % of control
- T/C [6]: 96 % of control

Compound: CC12C(=O)OC(=O)C1(C)C1OC2C(Br)C1Br (stereo unspecified)
- T/C (endpoint: mean survival time, dose: 25.0 mg/kg/injection, schedule: Q04DX003 (ip), vehicle: saline with Tween-80): 96 % of control
- T/C (endpoint: mean survival time, dose: 50.0 mg/kg/injection, schedule: Q04DX003 (ip), vehicle: saline with Tween-80): 96 % of control
- T/C [8]: 93 % of control and 101 % of control

Compound: O=c1[nH]c(=O)n(C2CC(O)C(CO)O2)cc1CN1CCCC1 (stereo unspecified)
- T/C (endpoint: mean survival time, dose: 6.25 mg/kg/injection, schedule: Q01DX005 (ip), vehicle: water): 95 % of control
- T/C (endpoint: mean survival time, dose: 12.5 mg/kg/injection, schedule: Q01DX005 (ip), vehicle: water): 109 % of control
- T/C (endpoint: mean survival time, dose: 25.0 mg/kg/injection, schedule: Q01DX005 (ip), vehicle: water): 87 % of control
- T/C (endpoint: mean survival time, dose: 50.0 mg/kg/injection, schedule: Q01DX005 (ip), vehicle: water): 102 % of control
- T/C (endpoint: mean survival time, dose: 100.0 mg/kg/injection, schedule: Q01DX005 (ip), vehicle: water): 102 % of control
- T/C (endpoint: mean survival time, dose: 200.0 mg/kg/injection, schedule: Q01DX005 (ip), vehicle: water): 96 % of control
- T/C (endpoint: mean survival time, dose: 400.0 mg/kg/injection, schedule: Q01DX005 (ip), vehicle: water): 96 % of control

Compound: Cc1ccc([N+](=O)[O-])cc1NC(=O)NNC(=O)CNC(=O)Nc1cccc([N+](=O)[O-])c1
- T/C [5]: 88 % of control
- T/C [6]: 86 % of control
- T/C [11]: 104 % of control
